Measured values: the supplement of paper PMC8967900

Assays:
Experiment in all cases: selective drug sensitivity score (sDSS, relative to normal bone marrow) (sDSS (score)); higher = more potent and effective on the cell line relative to normal bone marrow cells
Settings in all cases: 72 h
697 = test system: 697
MHH-CALL-3 = test system: MHH-CALL-3
NALL-1 = test system: NALL-1
CCRF-CEM = test system: CCRF-CEM
KARPAS-45 = test system: KARPAS-45
JURKAT = test system: JURKAT
COG-LL-355h = test system: COG-LL-355h
TMD5 = test system: TMD5
COG-LL-332h = test system: COG-LL-332h
NALM-6 = test system: NALM-6
KASUMI-9 = test system: KASUMI-9
P30-OHKUBO = test system: P30-OHKUBO
COG-LL-319h = test system: COG-LL-319h
380 = test system: 380
TANOUE = test system: TANOUE
REH = test system: REH
PF-382 = test system: PF-382
NALM-16 = test system: NALM-16
MOLT-14 = test system: MOLT-14
MOLT-4 = test system: MOLT-4
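Further: ALL cell lines in 384-well plates, five doses spanning 10,000-fold, each plate scaled between vehicle and 100 µmol/L benzalkonium chloride controls, sDSS an adapted area-under-curve metric.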

SMILES	selective drug sensitivity score 697	selective drug sensitivity score (MHH-CALL-3)	selective drug sensitivity score (NALL-1)	selective drug sensitivity score (CCRF-CEM)	selective drug sensitivity score (KARPAS-45)	selective drug sensitivity score (JURKAT)	selective drug sensitivity score (COG-LL-355h)	selective drug sensitivity score (TMD5)	selective drug sensitivity score (COG-LL-332h)	selective drug sensitivity score (NALM-6)	selective drug sensitivity score (KASUMI-9)	selective drug sensitivity score (P30-OHKUBO)	selective drug sensitivity score (COG-LL-319h)	selective drug sensitivity score 380	selective drug sensitivity score (TANOUE)	selective drug sensitivity score (REH)	selective drug sensitivity score (PF-382)	selective drug sensitivity score (NALM-16)	selective drug sensitivity score (MOLT-14)	selective drug sensitivity score (MOLT-4)
Cc1nc(-c2cn3c(n2)-c2ccc(-c4cnn(C(C)(C)C(N)=O)c4)cc2OCC3)n(C(C)C)n1 [Taselisib] (top concentration 1000 nM)	3.9	-4.3	-1.7	3.9	2	-2.6	11.9	-4.3	0.7	9.5	6.3	12.2	4.1	7.4	-4.3	5.7	3	4.2	-4.3	3
CC(C)c1cc(C(=O)N2Cc3ccc(CN4CCN(C)CC4)cc3C2)c(O)cc1O [Onalespib] (top concentration 2500 nM)	2.82	8.42	-4.68	4.62	5.42	-1.18	3.32	-3.28	7.62	5.52	-2.18	1.32	7.92	6.52	-6.48	-0.08	5.62	1.82	6.02	5.92
C=CC(=O)N1CCC[C@@H](n2nc(-c3ccc(Oc4ccccc4)cc3)c3c(N)ncnc32)C1 [Ibrutinib] (top concentration 1000 nM)	2.2	0	0	0.1	3.4	0	0	0.1	2.4	2.4	1.3	1.2	5.2	0.9	0	0	0	0	2.6	1.4
Cc1cn(-c2cc(NC(=O)c3ccc(C)c(Nc4nccc(-c5cnccn5)n4)c3)cc(C(F)(F)F)c2)cn1 [Radotinib] (top concentration 10000 nM)	5.7	0	0	0	0	0	0	22	19.6	0.9	9.2	5.1	13.2	1.8	1.3	0	0.2	0	0.6	1.2
CC1CCC(n2c3cnccc3c3cnc(Nc4ccc5c(n4)CCN(C(=O)CO)C5)nc32)CC1 (stereo not given) [AMG-925] (top concentration 1000 nM)	11.4	4.94	-0.16	3.14	1.84	4.54	2.34	-0.66	4.34	4.74	8.24	8.14	6.44	2.44	1.94	3.44	5.44	6.34	6.14	2.34
Nc1cccc2c1CN(C1CCC(=O)NC1=O)C2=O (stereo not given) [Lenalidomide] (top concentration 100000 nM)	-2.28	-2.28	-2.28	0.92	-2.28	-2.28	2.82	5.02	0.22	-2.28	7.42	-2.28	-1.78	1.62	-2.28	-2.28	-2.28	-0.38	0.12	-2.28
Cn1ncc(Cl)c1-c1cc(C(=O)N[C@H](CN)Cc2cccc(F)c2)sc1Cl [Afuresertib] (top concentration 1000 nM)	0.76	-1.94	-2.34	5.36	3.06	3.86	2.76	-2.34	2.86	4.66	1.86	5.56	7.76	2.46	-1.94	3.56	2.66	1.46	0.16	6.26
Nc1nc(Cl)nc2c1ncn2[C@@H]1O[C@H](CO)[C@@H](O)[C@@H]1F [Clofarabine] (top concentration 10000 nM)	9.6	10.9	1.8	8.2	-22.6	1.9	3	-26.5	4.3	2.1	7.3	10.3	5.6	13.4	-18.6	2.3	1.8	-5.6	11.4	3.7
CN1CCN(c2nc(C3=C(c4c[nH]c5ccccc45)C(=O)NC3=O)c3ccccc3n2)CC1 [Sotrastaurin] (top concentration 10000 nM)	8	5.8	1.9	-0.1	-0.4	-1.7	5.7	2.9	2	0.8	0.5	3.1	4.7	4.5	-2.3	4.8	-1.9	1.8	-2	-1.7
O=c1[nH]c(C2CCCN2)nc2c1oc1ccc(Cl)cc12 (stereo not given) (top concentration 10000 nM)	6.2	-0.7	0.8	5.8	0.9	-2.8	2.1	-2.8	6.7	-0.4	-1	1.2	2	13.1	-2.8	0.3	2.4	-1.9	6.4	-2.8
CN(C)CCOc1ccc(/C(=C(/CCCl)c2ccccc2)c2ccccc2)cc1 [Toremifene] (top concentration 10000 nM)	0.28	-2.52	8.98	-0.02	0.38	-0.42	2.28	0.78	0.98	1.68	0.58	0.58	3.48	1.58	-2.62	-1.52	1.08	-0.82	2.48	2.58
CC(=O)Nc1cccc(-n2c(=O)n(C3CC3)c(=O)c3c(Nc4ccc(I)cc4F)n(C)c(=O)c(C)c32)c1 [Trametinib] (top concentration 250 nM)	-2.64	9.46	-4.84	-1.84	-7.14	-7.94	5.06	0.16	-6.04	2.86	-1.14	-8.04	-0.74	3.56	-7.74	-8.04	-5.44	-1.24	6.96	-4.54
Cc1cc(Nc2ncc(Cl)c(Nc3ccccc3S(=O)(=O)C(C)C)n2)c(OC(C)C)cc1C1CCNCC1 [Ceritinib] (top concentration 2500 nM)	-2.24	-3.44	-2.14	-3.34	-2.54	-3.44	2.86	-3.44	-3.44	-0.74	-2.04	-2.44	6.66	0.36	-3.44	-2.84	-3.24	-3.44	-3.44	-3.44
C=C1C[C@@H]2[C@H](CC[C@]3(C)C(=O)CC[C@@H]23)[C@@]2(C)C=CC(=O)C=C12 [Exemestane] (top concentration 10000 nM)	-0.9	0.1	-1.9	-0.9	-1.2	-1.4	1	-0.1	2.4	1.5	-0.8	-0.4	10	7.7	-0.7	-1.9	-0.4	-1.9	1	-1.9
C=C(c1ccc(C(=O)O)cc1)c1cc2c(cc1C)C(C)(C)CCC2(C)C [Bexarotene] (top concentration 10000 nM)	-2.7	10.2	-4.5	-3.4	-1.8	-2.7	-5.1	0.1	-1.7	-3.4	-3.4	-5.3	-5.3	24	-5.3	-3.8	-4.6	-4.1	0.4	2.2
CC1(COc2ccc3c(c2)ncn3-c2ccc3cccc(N4CCC(N)CC4)c3n2)COC1 [Crenolanib] (top concentration 10000 nM)	3.28	-5.32	1.58	-1.82	1.28	-1.12	0.48	-0.02	-0.82	-4.02	-0.02	-2.72	-3.92	2.08	-9.32	-4.32	0.08	-7.62	-1.22	-4.02
O=C(Nc1ccncc1)C(=O)c1cn(Cc2ccc(Cl)cc2)c2ccccc12 [Indibulin] (top concentration 10000 nM)	12	1.64	9.94	6.04	6.84	15.1	-1.46	3.44	6.34	0.34	12	6.14	17	8.74	-2.76	4.14	4.74	9.34	14.1	9.64
Cc1c(C(=O)Nc2ccc(N3C[C@@H](C)O[C@@H](C)C3)nc2)cccc1-c1ccc(OC(F)(F)F)cc1 [Sonidegib] (top concentration 10000 nM)	1.28	-3.92	7.58	-0.12	0.68	2.48	-3.92	-3.92	-1.42	0.98	1.48	5.68	4.98	-3.92	-2.42	0.98	2.28	-3.92	0.38	1.08
